Reference: US20190144499A1, “PHENYL P[…], AND MANUFACTURING METHOD AND PHARMACEUTICAL APPLICATION THEREOF” (Jiangsu Hengrui Medicine Co., Ltd., priority 2016, published 2019)
Where a SMILES comes first, the peptide text is derived from it. [ ]: non-standard residue; d: D form. The star is where a group is joined. Piperidin1yl(4-NH2,4-COOH) = NC1(C(=O)O)CCN(*)CC1; N(Indan-2-yl)Gly = O=C(O)CNC1Cc2ccccc2C1; Gly(NCH2CH2Ph) = O=C(O)CNCCc1ccccc1; Morpholide = C1CN(*)CCO1

Legend:
[1] = target: T1, human KOR (h-KOR) receptors (Homo sapiens, UniProt P41145); test: h-KOR agonist activity test (cAMP/CRE-luciferase reporter in HEK293/h-KOR/CRE cells); type: cell-based; conditions: Forskolin, 4 hours, luciferase chemiluminescence, read-out: EC50 on agonizing h-KOR receptor and affecting cAMP levels
T1 construct: expressed in transfected cells
Excerpt: The objective of this experiment is to determine the agonistic effect of the compounds of the present invention on human KOR (h-KOR) receptors, and to evaluate the in vitro activity of the compounds according to the values of EC50.
The compounds of the present invention can activate h-KOR receptor, thereby reducing intracellular cAMP levels. The second messenger cAMP enters the nucleus and binds to the CRE of the DNA, thereby initiating the expression of the downstream luciferase. Luciferase reacts with its substrate to emit fluorescence, and the measured fluorescence signals reflect the agonistic activity of the compounds.
The activity of the test example compounds on agonizing h-KOR and affecting downstream cAMP levels was tested by the following method.
KOR/pcDNA3.1 (+) and CRE/pGL4.29 were transferred into HEK293 cells. G418 and hygromycin were added into the culture medium, and HEK293/KOR/CRE monoclonal cell lines were screened in a 96-well cell culture plate.
HEK293/h-KOR/CRE monoclonal cells were cultured in a DMEM/high glucose medium (10% FBS, 1 mg/ml G418, 200 μg/ml hygromycin, mixed uniformly), and passaged every 3 days. On the day of the experiment, a cell suspension was prepared with a fresh cell medium, added to a 96 well plate (BD, #356692) with 20,000 cells/well, and incubated in 5% CO2 at 37° C. On the second day, the compound was dissolved in pure DMSO at a concentration of 20 mM, then formulated with DMSO to a first concentration of 200 nM and diluted in 3 fold concentration gradient to 8 concentrations. 90 μl of DMSO were added to blank and control wells. The compound solution was diluted 20-fold with DMEM/hyperglucose (SH30243.01B, Hyclone) medium containing […]. The cell culture plates inoculated on the first day were taken out, and 10 μl of the diluted drug or the control (0.5% DMSO) was added to each well. The plate was gently shaken, and placed at 37° C. for 4 hours. In a 96-well cell culture plate, 100 μl of luciferase assay solution (Promega, # E6110) was added to each well. The plate was placed for 5 minutes at room temperature. The chemiluminescence value was measured using Victor 3.0. The EC50 values of the compounds were calculated using Graphpad Prism software based on each concentration of the compound and the corresponding signal value.
The activity of the compounds of the present invention on agonizing h-KOR and affecting downstream cAMP levels was determined by the above test, and the EC50 values are shown in Table 1.1.

[2] = Pharmacokinetics assay in rats after intravenous administration; type: in vivo; conditions: both sexes, Sprague-Dawley, rat, plasma, SD rats, 1 mg/kg; for Vd: read-out: Apparent Distribution Volume Vz; for AUC: read-out: Area Under Curve AUC; for clearance: read-out: Clearance CL; for half-life: read-out: Half-Life t1/2 (converted); for MRT: read-out: Mean Residence Time MRT
Description: (§1) Rats were used as test animals. The drug concentration in plasma at different time points was determined by LC/MS/MS after intravenous administration of the compounds of Examples 2, 5 and 8 to the rats. The pharmacokinetic behavior of the compounds of the present invention was studied and evaluated in SD rats.
12 Sprague-Dawley (SD) rats, half male and half female, were purchased from SINO-BRITISH SIPPR/BK LAB. ANIMAL LTD., CO, with License No.: SOCK (Shanghai) 2008-0016.
The appropriate amount of the test compounds was weighed, and added with 5% 5% DMSO+5% PEG400+90% normal saline successively.
After an overnight fast, 12 SD rats, half male and half female, were divided into 3 groups equally, and administered intravenously at a dose of an administration volume of 5 mL/kg.
(§2) In the venous group, blood (0.2 mL) was taken from the orbital sinus before administration and 0.25, 0.5, 1.0, 2.0, 4.0, 8.0, 11.0 and 24.0 hours after administration. The samples were stored in heparinized tubes, and centrifuged for 10 minutes at 3,500 rpm to separate the blood plasma. The plasma samples were stored at −20° C.
The concentration of the test compounds in SD rat plasma after intravenous administration was determined by LC-MS/MS.

[3] = test system: carrageenan inflammatory pain model in rats; test: Carrageenan-induced inflammatory pain in rats, plantar tenderness test (electronic Von Frey); type: in vivo, Wistar rats; conditions: for threshold of tenderness: 30 minutes before detection, 4 hours after carrageenan, model group 7.6 g, blank control about 20 g
Description: A carrageenan inflammatory pain model in rats was established to evaluate the therapeutic effect of KOR agonists on inflammatory pain in rats.
Male Wistar rats were purchased from Shanghai Slac Laboratory Animal Co., Ltd. (Shanghai, China, Certificate No. 2015000513408, License No. SCXK (Shanghai) 2012-0002). The rats were 150-180 g, and fed at 5/cage, in a condition of 12/12 hours light/dark cycle adjustment, constant temperature of 23±1° C., humidity of 50˜60%, and free access to food and water. After purchase, the animals adapted to this condition for 7 days before the experiment was started.
1% λ-Carrageenan was placed in physiological saline, and stirred overnight to form a jelly-like suspension.
The experimental method was modified in accordance with the method of Document 1 (Kazunari Nakao et al.). Before inflammatory pain experiment, rats were randomly divided into the following groups according to body weight: blank control group, model group, Example 5-0.1 mg/kg group, and Example 5-0.3 mg/kg group. There were 8 rats in each group. Inflammatory pain model was made in Wistar rat footpads that were subcutaneously injected with 1% carrageenan (100 μl). After 4 hours, the rats were subjected to a plantar tenderness test to evaluate the mechanical pain threshold. Single tail vein administration of the drug (1 ml/kg) was carried out 30 minutes before detection, and the control group and the model group were given corresponding solvents.
Electronic Von Frey: UGO BASILE, type 38450.
The experimental data were expressed as mean±standard deviation (S.D.). Statistical comparisons were performed using the excel software t test.

[4] = Pharmacokinetics assay in dogs after intravenous administration; type: in vivo; conditions: male, dog, plasma, Beagle dogs, 0.3 mg/kg
Description: as §1, with “Beagle dogs” for “Rats”, “compound” for “compounds”, “Example” for “Examples 2,”, “5” for “5 and 8”, “Beagle dogs.” for “rats.”, “Beagle dogs.” for “SD rats.”
3 Beagle dogs in one group, male, were purchased from Medicilon Pharmaceutical Technology (Shanghai) Co., Ltd.
The appropriate amount of the test compound was weighed, and added with 100% normal saline.
After an overnight fast, 3 Beagle dogs in one group, male, were administered intravenously at a dose of an administration volume of 2 mL/kg.
as §2, with “(1” for “(0.2”, “jugular vein” for “orbital sinus”, “5 minutes, 15 minutes,” for “0.25,”, “12.0” for “11.0”, “−80°” for “−20°”
The concentration of the test compound in Beagle dog plasma after intravenous administration was determined by LC-MS/MS.

T1 sequence (P41145 whole entry): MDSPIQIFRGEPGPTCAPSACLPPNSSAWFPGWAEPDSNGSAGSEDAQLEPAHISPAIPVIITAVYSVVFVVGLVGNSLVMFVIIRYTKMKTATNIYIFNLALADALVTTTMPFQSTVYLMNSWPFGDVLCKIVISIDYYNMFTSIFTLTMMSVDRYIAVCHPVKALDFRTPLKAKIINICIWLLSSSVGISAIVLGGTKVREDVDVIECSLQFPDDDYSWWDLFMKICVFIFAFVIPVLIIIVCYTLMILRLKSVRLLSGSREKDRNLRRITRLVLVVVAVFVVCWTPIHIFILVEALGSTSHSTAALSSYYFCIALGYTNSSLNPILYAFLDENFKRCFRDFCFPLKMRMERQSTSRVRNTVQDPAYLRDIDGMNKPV

| Compound | EC50 [1] | Vd [2] | AUC [2] | clearance [2] | half-life [2] | MRT [2] | other results |
| --- | --- | --- | --- | --- | --- | --- | --- |
| CCC(CNCC(=O)N[C@H](Cc1ccccc1)C(=O)N[C@H](CC(C)C)C(=O)N[C@H](CCCCN)C(=O)N1CCC(N)(C(=O)O)CC1)c1ccccc1 (stereo partly drawn) [Example 7, 4-amino-1-((2R,5R,8R)-2-(4-aminobutyl)-8-benzyl-5-isobutyl-4,7,10-trioxo-14-phenyl-3,6,9,12-tetraazahexadecan-1-oyl)piperidine-4-carboxylic Acid] | 0.003 nM | – | – | – | – | – | – |
| CC(C)C[C@@H](NC(=O)[C@@H](Cc1ccccc1)NC(=O)CNC[C@H](C)c1ccccc1)C(=O)N[C@H](CCCCN)C(=O)N1CCC(N)(C(=O)O)CC1 [Example 5, 4-amino-1-((2R,5R,8R,14R)-2-(4-aminobutyl)-8-benzyl-5-isobutyl-4,7,10-trioxo-14-phenyl-3,6,9,12-tetraazapentadecan-1-oyl)piperidine-4-carboxylic Acid] | 0.001 nM | 0.41 ± 0.112 L/kg | 1700 ± 363 ng·h/mL | 10.1 ± 1.8 mL/min/kg | 28.1 ± 5.52 min | 33.4 ± 7.44 min | increase of threshold of tenderness compared with the model group ([3]; 0.1 mg/kg i.v. once): 79.5%; threshold of tenderness ([3]; 0.1 mg/kg i.v. once): 13.7 g; increase of threshold of tenderness compared with the model group ([3]; 0.3 mg/kg i.v. once): 204.5%; threshold of tenderness ([3]; 0.3 mg/kg i.v. once): 23.2 g; Vd ([4]; read-out: Apparent Distribution Volume Vz): 0.296 ± 0.019 L/kg; AUC ([4]; read-out: Area Under Curve AUC): 1980 ± 165 ng·h/mL; clearance ([4]; read-out: Clearance CL): 2.54 ± 0.21 mL/min/kg; half-life ([4]; read-out: Half-Life t1/2 (converted)): 80.4 ± 2.4 min; MRT ([4]; read-out: Mean Residence Time MRT): 85.8 ± 4.8 min |
| CC(C)C[C@@H](NC(=O)[C@@H](Cc1ccccc1)NC(=O)CNC1Cc2ccccc2C1)C(=O)N[C@H](CCCCN)C(=O)N1CCOCC1 [Example 10, (R)—N—((R)-6-amino-1-morpholino-1-oxohexan-2-yl)-2-((R)-2-(2-((2,3-dihydro-1H-inden-2-yl)amino)acetamido)-3-phenylpropanamido)-4-methylpentanamide] (H-[N(Indan-2-yl)Gly][dF][dL][dK]-Morpholide) | > 1 nM | – | – | – | – | – | – |
| CC(C)C[C@@H](NC(=O)[C@@H](Cc1ccccc1)NC(=O)CNCC1(c2ccccc2)CC1)C(=O)N[C@H](CCCCN)C(=O)N1CCC(N)(C(=O)O)CC1 [Example 1, 4-amino-1-((6R,9R,12R)-12-(4-aminobutyl)-6-benzyl-9-isobutyl-4,7,10-trioxo-1-(1-phenylcyclopropyl)-2,5,8,11-tetraazatridecan-13-oyl)piperidine-4-carboxylic acid] | 0.056 nM | – | – | – | – | – | – |
| CC(C)C[C@@H](NC(=O)[C@@H](Cc1ccccc1)NC(=O)CNCC(C)(C)c1ccccc1)C(=O)N[C@H](CCCCN)C(=O)N1CCC(N)(C(=O)O)CC1 [Example 3, 4-amino-1-((2R,5R,8R)-2-(4-aminobutyl)-8-benzyl-5-isobutyl-14-methyl-4,7,10-trioxo-14-phenyl-3,6,9,12-tetraazapentadecan-1-oyl)piperidine-4-carboxylic Acid] | 0.004 nM | – | – | – | – | – | – |
| CC(C)C[C@@H](NC(=O)[C@@H](Cc1ccccc1)NC(=O)CNCCc1ccccc1)C(=O)N[C@H](CCCCN)C(=O)N1CCC(N)(C(=O)O)CC1 [Example 8, 4-amino-1-((2R,5R,8R)-2-(4-aminobutyl)-8-benzyl-5-isobutyl-4,7,10-trioxo-14-phenyl-3,6,9,12-tetraazatetradecan-1-oyl)piperidine-4-carboxylic Acid] (H-[Gly(NCH2CH2Ph)][dF][dL][dK]-{Piperidin1yl(4-NH2,4-COOH)}) | 0.013 nM | 0.499 ± 0.111 L/kg | 1520 ± 436 ng·h/mL | 11.6 ± 3.3 mL/min/kg | 30.1 ± 2.28 min | 34 ± 6.72 min | – |
| CC(C)C[C@@H](NC(=O)[C@@H](Cc1ccccc1)NC(=O)CNC[C@@H](c1ccccc1)C(C)C)C(=O)N[C@H](CCCCN)C(=O)N1CCC(N)(C(=O)O)CC1 [Example 4, 4-amino-1-((2R,5R,8R,14R)-2-(4-aminobutyl)-8-benzyl-5-isobutyl-15-methyl-4,7,10-trioxo-14-phenyl-3,6,9,12-tetraazahexadecan-1-oyl)piperidine-4-carboxylic Acid] | 0.009 nM | – | – | – | – | – | – |
| CC(C)C[C@@H](NC(=O)[C@@H](Cc1ccccc1)NC(=O)CNC[C@@H](C)c1ccccc1)C(=O)N[C@H](CCCCN)C(=O)N1CCC(N)(C(=O)O)CC1 [Example 2, 4-amino-1-((2R,5R,8R,14S)-2-(4-aminobutyl)-8-benzyl-5-isobutyl-4,7,10-trioxo-14-phenyl-3,6,9,12-tetraazapentadecan-1-oyl)piperidine-4-carboxylic acid] | 0.015 nM | 0.28 ± 0.046 L/kg | 2560 ± 427 ng·h/mL | 6.66 ± 1.28 mL/min/kg | 29.3 ± 1.56 min | 31.5 ± 5.94 min | – |
| CC(C)C[C@@H](NC(=O)[C@@H](Cc1ccccc1)NC(=O)CN[C@H]1C[C@@H]1c1ccccc1)C(=O)N[C@H](CCCCN)C(=O)N1CCOCC1 [Example 6, (R)—N—((R)-6-amino-1-morpholino-1-oxohexan-2-yl)-4-methyl-2-((R)-3-phenyl-2-(2-(((1S,2R)-2-phenylcyclopropyl)amino)acetamido)propanamido)pentanamide] | 0.079 nM | – | – | – | – | – | – |
